One assay relates to iNOS promoter. Description: iNOS promoter-luciferase reporter assay in LPS/IFNγ-treated RAW 264.7 (or A549) cells. The assay is classed as cell-based, murine or human. The following applies: 10 μM compound; 5 μg/ml LPS, 20 ng/ml IFNγ; 18-20 h. Here is the method:
RAW 264.7 cells (or A549 cells) were seeded in 24-well plates (9×10^4 cells/well) and grown overnight in sodium pyruvate-free DMEM with 4 mM glutamine containing 1% non-essential amino acids (Biological Industries, Israel) with antibiotics and 10% heat-inactivated fetal bovine serum or 10% fetal calf serum (Biological Industries, Israel). The cells were then co-transfected with murine or human iNOS or murine COX-II promoter-luciferase reporter plasmids (100 ng/well) and pCMV-β-gal (100 ng/well) using FuGene6 (Roche, Germany) following the protocol provided by the manufacturer. Murine iNOS promoter luciferase plasmids, human iNOS promoter-luciferase reporter plasmids (pGL3-8296), and murine COX-II promoter-luciferase reporter plasmids were generously provided by Drs. Charles J. Lowenstein (John Hopkines University), Joel Moss (National Institute of Health), and Yu-Chih Liang (Taipei Medical University), respectively. […]
The luciferase and β-galactosidase assays were performed using a STEADY-GLO luciferase assay system (Promega) and Galacto-Star assay system (Tropix) according to the manufacturer's instructions. Luminescence was measured in a TOPCOUNT.NXT™ Microplate Scintillation and Luminescence Counter (Packard Inc.). […]
For orientation: In a reporter assay the amount or activity of a reporter protein is the signal.

The test system of assay [1] is HONE-1 (nasopharyngeal carcinoma). Put plainly: Carcinoma cell growth inhibition (MTS assay), HONE-1. The assay is classed as cell-based. As to conditions: 72 h. Here is the method: (§1) Two cancer cell lines, HONE-1 (nasopharyngeal carcinoma) and NUGC-3 (gastric cancer), were maintained in DMEM medium containing 10% fetal bovine serum, seeded in 96-well plates (4500 and 6000 cells/well, respectively), and incubated under CO2 at 37° C. for 24 h. The cells were treated with at least five different concentrations of test compounds in a CO2 incubator for 72 h. The number of viable cells was estimated using the tetrazolium dye reduction assay (MTS assay) according to the protocol provided by the manufacturer (Promega, Madison, Wis., USA). The absorbance was measured at 490 nm on a Wallac 1420 VICTOR2 Multilabel counter (Perkin-Elmer, Boston, Mass.). The results of these assays were used to obtain the dose-response curves from which IC50 (nM) values were determined (an IC50 value represents the concentration (nM) of the test compound at which it produces a 50% cell growth inhibition after 3 days of incubation).
Background: Formazan colour is commonly taken as a measure of viable cells.

The subject of the next assay is NUGC-3 (gastric cancer). Put plainly: Carcinoma cell growth inhibition (MTS assay), NUGC-3. The assay is classed as cell-based. As to conditions: 72 h. Here is the method: as §1
Another assay has as its system AP1. Description: pAP 1-Luc luciferase reporter assay in LPS/IFNγ-treated RAW 264.7 (or A549) cells. The assay is classed as cell-based. The following applies: at the concentration higher than 1 μM; LPS (10 μg/ml)/IFNγ (20 ng/ml), 5 h. Here is the method: (§2) The luciferase and β-galactosidase assays were performed using a STEADY-GLO luciferase assay system (Promega) and Galacto-Star assay system (Tropix) according to the manufacturer's instructions. Luminescence was measured in a TOPCOUNT.NXT™ Microplate Scintillation and Luminescence Counter (Packard Inc.). The results were normalized to β-galactosidase activity derived from co-transfected LacZ gene under the control of a constitutive promoter.
(§3) RAW 264.7 cells (or A549 cells) were seeded in 24-well plates (10^6 cells/well) 4-6 h before they were transfected with pNF-κB-Luc (Stratagene Corp., Calif.) (100 ng/well) and pCMV-β-gal (100 ng/well), or pAP 1-Luc (Stratagene Corp., Calif.) (200 ng/well) alone. The transfected cells were incubated for 24 h and then washed with the culture medium twice. After 18 h of incubation, the cells were treated with LPS (10 μg/ml)/IFNγ (20 ng/ml) and Compound 2 (final concentration: 0.3, 1, 3, or 10 μM) for 5 h. The cells were subjected to the luciferase and β-galactosidase assays.

Assay [2] has as its system NF-κB. Description: pNF-κB-Luc luciferase reporter assay in LPS/IFNγ-treated RAW 264.7 (or A549) cells. The format is cell-based. As to the method: as §2, §3
A further assay relates to AP 1. Description: pAP 1-Luc reporter assay in RAW264.7 cells co-transfected with pFC-MEKK. The format is cell-based. As to conditions: at the concentration of 3 μM or higher; cells treated with LPS/IFNγ. As to the method:
as §3
(§4) In a similar manner, RAW264.7 cells were transfected with pNF-κB-Luc plasmids (100 ng/well) or pAP 1-Luc (100 ng/well) as well as pFC-MEKK (Stratagene Corp., Calif.) (50 ng/well) and/or pCMV-β-gal plasmids (100 ng/well) and the transfected cells were subjected to the luciferase and β-galactosidase assays.

The test system of assay [3] is NF-κB. Put plainly: pNF-κB-Luc reporter assay in RAW264.7 cells co-transfected with pFC-MEKK. The format is cell-based. As to conditions: at the concentration of 3 μM or higher; cells treated with LPS/IFNγ. Here is the method:
as §3, §4

Another assay concerns the target T1, MEKK1 (Mus musculus, UniProt P53349).
T1 construct: host or cells: RAW264.7
T1 sequence (P53349 1201-1493 limits assumed): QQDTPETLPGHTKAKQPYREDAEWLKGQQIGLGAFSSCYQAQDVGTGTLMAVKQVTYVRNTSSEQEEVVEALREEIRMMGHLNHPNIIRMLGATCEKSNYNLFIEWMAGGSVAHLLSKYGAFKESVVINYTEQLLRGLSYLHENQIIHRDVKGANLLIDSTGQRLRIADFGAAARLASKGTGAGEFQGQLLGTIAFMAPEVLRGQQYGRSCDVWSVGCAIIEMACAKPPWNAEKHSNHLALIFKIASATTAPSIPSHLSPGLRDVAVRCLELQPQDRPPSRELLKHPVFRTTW
Put plainly: MEKK1 inhibition inferred from reporter assays in MEKK1 over-expressing RAW264.7 cells. The format is cell-based. The following applies: suggested by the reporter results in MEKK1 over-expressing cells. As to the method:
as §4

Another assay deals with Akt. Description: Phosphorylation of Akt in LPS/IFNγ-treated RAW264.7 cells. The format is cell-based.
The next assay has as its system ATF-2. Description: Phosphorylation of ATF-2 in LPS/IFNγ-treated RAW264.7 cells. The format is cell-based.
For another assay, the system named is c-Jun. Put plainly: Expression of c-Jun in LPS/IFNγ-treated RAW264.7 cells. The format is cell-based.
The test system of another assay is TNF α. Description: TNF α protein ELISA in cell culture supernatants. The assay is classed as cell-based. As to the method: RAW 264.7 cells were seeded (70,000 cells/well) and cultured in 96-well culture plate. After 24 h incubation, the medium was replaced with one containing LPS (5 ug/ml)/IFNγ (20 ng/ml) and each of Compounds 1-4 (final concentration: 3, 5, or 6 μM) was added at different concentrations. After 18-24 h, the supernatants were subjected to the measurement of nitric oxide production using the Nitrate/Nitrite assay kit (Cayman Chemical). Nitric oxide levels were measured as the accumulation of nitrite and nitrate in the incubation medium. Nitrate was reduced to nitrite with nitrate reductase and determined spectrophotometrically with the Griess reagent at OD405. The attached cells were subjected to cytotoxicity measurement using the MTS assay.
An ELISA kit (R & D Systems Inc., USA) was used to measure TNF α protein in cell culture supernatants using according to the manufacturer's instructions.
Background: In an ELISA, binding on a coated surface is turned into a signal by an enzyme label.

The next assay has as its system iNOS. Put plainly: iNOS level by immunoblotting. The assay is classed as cell-based. The following applies: immunoblotting of cell lysates. Here is the method:
(§5) Levels of iNOS, COX-II, and β-actin (control) were measured by immunoblotting with anti-iNOS antibody (Biomol), anti-COX-II antibody (Upstate), and anti-β-actin antibody (Chemicon), respectively. The cell lysates were subjected to SDS-PAGE and the separated proteins were electrophoretically transferred to nitrocellulose membranes. The membranes were incubated, respectively, with blocking solution for 1 h, primary antibody for 2 h, and secondary antibody for 1 h. Antigen-antibody complexes were detected using ECL detection reagents (Perkin Elmer, Western Blot Chemiluminescence Reagent Plus) according to the manufacturer's instructions.

Another assay deals with COX-II. Description: COX-II level by immunoblotting. The format is cell-based. As to conditions: immunoblotting of cell lysates. As to the method:
as §5

For the compound `COc1cc2c3c(c4cc(OC)c(OC)c(OC)c4c2cc1OC)[C@H](O)[C@@H]1CCC[N+]1([O-])C3` (some centres unmarked) [Compound 4], the “inhibition of iNOS promoter activity” value with iNOS promoter was “effectively inhibited”. For the same compound, the “inhibition of proliferation of HONE-1 cells” value (“inhibition … of HONE-1 cells” below) in assay [1] is listed as “inhibited”. For the same compound, the “inhibition of proliferation of NUGC-3 cells” value (from here on “inhibition … of NUGC-3 cells”) with NUGC-3 (gastric cancer) is on record as “inhibited”.

`COc1cc2c3c(c4cc(OC)c(OC)cc4c2cc1OC)CN1CCC[C@H]1C3` [Compound 2]: in the assay on iNOS promoter, the “inhibition of iNOS promoter activity” value is reported as “effectively inhibited”. Further, the “inhibition of AP 1 activity” value in the assay on AP1 is “inhibited”. Besides, in the assay with NF-κB [2] (Compound 2 and LY294002 named together, LPS/IFNγ-treated RAW264.7 cells), the “inhibition of NF-κB activity, Compound 2 and another P13K/Akt inhibitor” value is given as “significantly inhibited”. Further, the “inhibition of NF-κB activity” value with NF-κB [2] (tested at 0.3, 1, 3, or 10 μM, LPS (10 μg/ml)/IFNγ (20 ng/ml), 5 h, serum-free medium) is recorded as “not”. In addition, the “inhibition of AP 1 activity in cells with over-expression of MEKK1” value with AP 1 is recorded as “inhibited”. In addition, in the assay with NF-κB [3], the “inhibition of pNF-κB activity in cells with over-expression of MEKK1” value was “inhibited”. Besides, the “inhibition of MEKK1 activity or expression” value at MEKK1 is “inhibited”. Further, the “phosphorylation of Akt” value in the assay with Akt is recorded as “enhanced”. Moreover, the “phosphorylation of ATF-2” value in the assay with ATF-2 is “enhanced”. For the same compound, the “expression of c-Jun” value in the assay with c-Jun was “inhibited”. Besides, in assay [1], the “inhibition … of HONE-1 cells” value was “inhibited”. In addition, the “inhibition … of NUGC-3 cells” value in the assay with NUGC-3 (gastric cancer) is on record as “inhibited”. In addition, the “inhibition of production of TNF α” value in the assay on TNF α is “inhibited”. Further, the iNOS level entry in the assay on iNOS is “lowered”. Moreover, the COX-II level result in the assay on COX-II is given as “lowered”.

As to `COc1cc2c3c[n+]4c(cc3c3cc(OC)c(OC)c(OC)c3c2cc1OC)CCC4` [Compound 1], the “inhibition … of HONE-1 cells” value in assay [1] was “inhibited”. The “inhibition … of NUGC-3 cells” value in the assay with NUGC-3 (gastric cancer) is reported as “inhibited”.

The values above are taken from patent US7652027B2, “Phenanthroindolizidine alkaloids” (National Health Research Institutes, priority 2005, dated 2010).
